Measurements from patent US20250214983A1, “1,3,4-OXADIAZOLE TRIAZOLE COMPOUNDS AS HISTONE DEACETYLASE 6 INHIBITOR, AND PHARMACEUTICAL COMPOSITION COMPRISING THE SAME” (Chong Kun Dang Pharmaceutical Corp., priority 2022, published 2025).

Experiments:
human recombinant HDAC1 = molecular target: T1, human recombinant HDAC1 (Homo sapiens, UniProt Q13547); assay: HDAC1 enzyme activity inhibition (HDAC Fluorimetric Drug Discovery Kit); type: biochemical; settings: human recombinant HDAC1, Fluor de Lys substrate 10 μM, 30° C. 60 minutes
T1 construct: purchased Enzo Life Science, Inc. BML-SE456
T1 sequence (Q13547 whole entry): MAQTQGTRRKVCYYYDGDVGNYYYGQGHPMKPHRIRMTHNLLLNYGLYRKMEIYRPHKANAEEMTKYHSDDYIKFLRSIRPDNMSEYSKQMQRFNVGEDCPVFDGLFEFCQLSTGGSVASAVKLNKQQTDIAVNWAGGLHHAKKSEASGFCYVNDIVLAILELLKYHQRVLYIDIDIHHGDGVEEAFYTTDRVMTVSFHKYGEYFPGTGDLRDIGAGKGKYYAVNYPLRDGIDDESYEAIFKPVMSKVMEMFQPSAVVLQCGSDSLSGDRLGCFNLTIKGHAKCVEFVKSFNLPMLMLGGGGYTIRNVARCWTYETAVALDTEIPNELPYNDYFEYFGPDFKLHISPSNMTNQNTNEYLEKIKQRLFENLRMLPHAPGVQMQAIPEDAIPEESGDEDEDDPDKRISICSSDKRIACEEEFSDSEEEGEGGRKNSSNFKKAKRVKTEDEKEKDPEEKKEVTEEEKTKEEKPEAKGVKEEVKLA
Description: (§1) An experiment was conducted to identify the selectivity of the 1,3,4-oxadiazole triazole compound of the present invention to HDAC6 through an experiment on HDAC1 and HDAC6 enzyme activity inhibition.
(§2) The HDAC enzyme activity was measured with HDAC Fluorimetric Drug Discovery Kit (BML-AK511, 516) of Enzo Life Science, Inc. For the test on the HDAC1 enzyme activity, human recombinant HDAC1 (BML-SE456) was used as an enzyme source and Fluor de Lys®-“SIRT1 (BNL-KI177)” was used as a substrate. A 5-fold dilution of the compound was divided into a 96-well plate, after which 0.3 μg of the enzyme and 10 μM of the substrate were inserted into each well and subjected to reaction at 30° C. for 60 minutes, such that Fluor de Lys® Developer II (BML-KI176) was inserted thereinto and subjected to reaction for 30 minutes and finished. After that, a fluorescence value (Ex 360, Em 460) was measured with a multi-plate reader (Flexstation 3, Molecular Device). An experiment on HDAC6 enzyme was conducted in accordance with the same protocol as in the HDAC1 enzyme activity test method by using human recombinant HDAC6 (382180) of Calbiochem Inc. For final result values, each IC50 value was calculated with GraphPad Prism 4.0 program.

human recombinant HDAC6 = molecular target: T2, human recombinant HDAC6 (Homo sapiens, UniProt Q9UBN7); assay: HDAC6 enzyme activity inhibition (HDAC Fluorimetric Drug Discovery Kit); type: biochemical; settings: HDAC1 versus HDAC6
T2 construct: purchased Calbiochem Inc. 382180
T2 sequence (Q9UBN7 1-1215): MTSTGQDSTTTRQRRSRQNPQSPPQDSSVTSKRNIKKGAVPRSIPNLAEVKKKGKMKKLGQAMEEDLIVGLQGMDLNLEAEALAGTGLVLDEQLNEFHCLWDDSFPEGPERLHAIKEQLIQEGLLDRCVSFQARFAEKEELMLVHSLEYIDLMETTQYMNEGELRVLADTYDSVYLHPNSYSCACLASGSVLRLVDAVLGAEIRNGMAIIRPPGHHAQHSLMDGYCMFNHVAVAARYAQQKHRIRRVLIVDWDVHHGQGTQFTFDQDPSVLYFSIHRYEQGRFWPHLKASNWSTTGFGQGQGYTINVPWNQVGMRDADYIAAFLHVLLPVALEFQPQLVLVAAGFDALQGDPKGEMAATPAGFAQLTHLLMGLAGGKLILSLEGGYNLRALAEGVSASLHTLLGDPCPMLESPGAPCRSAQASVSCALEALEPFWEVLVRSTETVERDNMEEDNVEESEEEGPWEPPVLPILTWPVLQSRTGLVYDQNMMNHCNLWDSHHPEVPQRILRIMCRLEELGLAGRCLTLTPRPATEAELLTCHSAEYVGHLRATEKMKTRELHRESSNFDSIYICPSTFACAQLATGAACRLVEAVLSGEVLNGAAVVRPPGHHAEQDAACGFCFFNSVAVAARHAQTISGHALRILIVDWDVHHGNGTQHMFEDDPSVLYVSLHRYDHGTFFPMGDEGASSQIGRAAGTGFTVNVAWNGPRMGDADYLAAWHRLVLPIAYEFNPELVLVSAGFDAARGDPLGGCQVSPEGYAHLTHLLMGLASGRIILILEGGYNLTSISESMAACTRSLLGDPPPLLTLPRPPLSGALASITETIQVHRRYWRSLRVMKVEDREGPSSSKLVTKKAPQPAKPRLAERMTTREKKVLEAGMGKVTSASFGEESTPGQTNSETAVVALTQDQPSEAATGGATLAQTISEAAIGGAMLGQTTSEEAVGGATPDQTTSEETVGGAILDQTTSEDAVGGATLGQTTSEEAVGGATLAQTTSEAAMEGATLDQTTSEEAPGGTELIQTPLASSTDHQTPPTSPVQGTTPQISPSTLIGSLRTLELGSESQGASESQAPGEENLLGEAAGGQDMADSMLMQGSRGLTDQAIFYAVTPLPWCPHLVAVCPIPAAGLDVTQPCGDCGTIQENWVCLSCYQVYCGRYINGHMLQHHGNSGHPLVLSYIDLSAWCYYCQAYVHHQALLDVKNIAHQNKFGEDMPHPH
Description: as §1, §2

CC1CCN(Cc2ccc(-c3cn(Cc4ccc(-c5nnc(C(F)F)o5)cn4)nn3)nc2)CC1 [Compound 4, 2-(difluoromethyl)-5-(6-((4-(5-((4-methylpiperidin-1-yl)methyl)pyridin-2-yl)-1H-1,2,3-triazol-1-yl)methyl)pyridin-3-yl)-1,3,4-oxadiazole]
IC50 (human recombinant HDAC1): > 50 µM
HDAC6 selectivity (fold) (human recombinant HDAC6): 1428 fold

Fc1c(CN2CCCCC2)cccc1-c1cn(Cc2ccc(-c3nnc(C(F)F)o3)cn2)nn1 [Compound 28, 2-(difluoromethyl)-5-(6-((4-(2-fluoro-3-(piperidin-1-ylmethyl)phenyl)-1H-1,2,3-triazol-1-yl)methyl)pyridin-3-yl)-1,3,4-oxadiazole]
IC50 (human recombinant HDAC1): > 50 µM
HDAC6 selectivity (fold) (human recombinant HDAC6): 1440 fold

CC1(C)CCN(Cc2ccc(-c3cn(Cc4ccc(-c5nnc(C(F)F)o5)cn4)nn3)cn2)CC1 [Compound 6, 2-(difluoromethyl)-5-(6-((4-(6-((4,4-dimethylpiperidin-1-yl)methyl)pyridin-3-yl)-1H-1,2,3-triazol-1-yl)methyl)pyridin-3-yl)-1,3,4-oxadiazole]
IC50 (human recombinant HDAC1): > 50 µM
HDAC6 selectivity (fold) (human recombinant HDAC6): 1730 fold

FC(F)c1nnc(-c2ccc(Cn3cc(-c4ccc(CN5CC[C@H](F)C5)s4)nn3)nc2)o1 [Compound 7, (S)-2-(difluoromethyl)-5-(6-((4-(5-((3-fluoropyrrolidin-1-yl)methyl)thiophen-2-yl)-1H-1,2,3-triazol-1-yl)methyl)pyridin-3-yl)-1,3,4-oxadiazole]
IC50 (human recombinant HDAC1): > 50 µM
HDAC6 selectivity (fold) (human recombinant HDAC6): 1253 fold

FC(F)c1nnc(-c2ccc(Cn3cc(-c4cccc(CN5CCCC5)c4Cl)nn3)nc2)o1 [Compound 36, 2-(6-((4-(2-chloro-3-(pyrrolidin-1-ylmethyl)phenyl)-1H-1,2,3-triazol-1-yl)methyl)pyridin-3-yl)-5-(difluoromethyl)-1,3,4-oxadiazole]
IC50 (human recombinant HDAC1): > 50 µM
HDAC6 selectivity (fold) (human recombinant HDAC6): 1792 fold

FC(F)c1nnc(-c2ccc(Cn3cc(-c4csc(CN5CCC(F)(F)CC5)c4)nn3)nc2)o1 [Compound 16, 2-(difluoromethyl)-5-(6-((4-(5-((4,4-difluoropiperidin-1-yl)methyl)thiophen-3-yl)-1H-1,2,3-triazol-1-yl)methyl)pyridin-3-yl)-1,3,4-oxadiazole]
IC50 (human recombinant HDAC1): > 50 µM
HDAC6 selectivity (fold) (human recombinant HDAC6): 1237 fold

Fc1ccc(-c2cn(Cc3ccc(-c4nnc(C(F)F)o4)cn3)nn2)cc1CN1CCCC1 [Compound 22, 2-(difluoromethyl)-5-(6-((4-(4-fluoro-3-(pyrrolidin-1-ylmethyl)phenyl)-1H-1,2,3-triazol-1-yl)methyl)pyridin-3-yl)-1,3,4-oxadiazole]
IC50 (human recombinant HDAC1): > 50 µM
HDAC6 selectivity (fold) (human recombinant HDAC6): 3401 fold

FC(F)c1nnc(-c2ccc(Cn3cc(-c4ccc(CN5CCC5)c(Cl)c4)nn3)nc2)o1 [Compound 42, 2-(6-((4-(4-(azetidin-1-ylmethyl)-3-chlorophenyl)-1H-1,2,3-triazol-1-yl)methyl)pyridin-3-yl)-5-(difluoromethyl)-1,3,4-oxadiazole]
IC50 (human recombinant HDAC1): > 50 µM
HDAC6 selectivity (fold) (human recombinant HDAC6): 2183 fold

FC(F)c1nnc(-c2ccc(Cn3cc(-c4ccc(CN5CC[C@@H](F)C5)nc4)nn3)nc2)o1 [Compound 5, (R)-2-(difluoromethyl)-5-(6-((4-(6-((3-fluoropyrrolidin-1-yl)methyl)pyridin-3-yl)-1H-1,2,3-triazol-1-yl)methyl)pyridin-3-yl)-1,3,4-oxadiazole]
IC50 (human recombinant HDAC1): > 50 µM
HDAC6 selectivity (fold) (human recombinant HDAC6): 1547 fold

CC1CCN(Cc2cccc(-c3cn(Cc4ccc(-c5nnc(C(F)F)o5)cn4)nn3)c2Cl)CC1 [Compound 37, 2-(6-((4-(2-chloro-3-((4-methylpiperidin-1-yl)methyl)phenyl)-1H-1,2,3-triazol-1-yl)methyl)pyridin-3-yl)-5-(difluoromethyl)-1,3,4-oxadiazole]
IC50 (human recombinant HDAC1): > 50 µM
HDAC6 selectivity (fold) (human recombinant HDAC6): 1160 fold

CN(C)Cc1cc(-c2cn(Cc3ccc(-c4nnc(C(F)F)o4)cn3)nn2)ccc1F [Compound 23, 1-(5-(1-((5-(5-(difluoromethyl)-1,3,4-oxadiazol-2-yl)pyridin-2-yl)methyl)-1H-1,2,3-triazol-4-yl)-2-fluorophenyl)-N,N-dimethylmethanamine]
IC50 (human recombinant HDAC1): > 50 µM
HDAC6 selectivity (fold) (human recombinant HDAC6): 2702 fold

Fc1cc(CN2CCCC2)cc(-c2cn(Cc3ccc(-c4nnc(C(F)F)o4)cn3)nn2)c1 [Compound 39, 2-(difluoromethyl)-5-(6-((4-(3-fluoro-5-(pyrrolidin-1-ylmethyl)phenyl)-1H-1,2,3-triazol-1-yl)methyl)pyridin-3-yl)-1,3,4-oxadiazole]
IC50 (human recombinant HDAC1): > 50 µM
HDAC6 selectivity (fold) (human recombinant HDAC6): 1773 fold

FC(F)c1nnc(-c2ccc(Cn3cc(-c4cc(Cl)cc(CN5CCCC5)c4)nn3)nc2)o1 [Compound 32, 2-(6-((4-(3-chloro-5-(pyrrolidin-1-ylmethyl)phenyl)-1H-1,2,3-triazol-1-yl)methyl)pyridin-3-yl)-5-(difluoromethyl)-1,3,4-oxadiazole]
IC50 (human recombinant HDAC1): > 50 µM
HDAC6 selectivity (fold) (human recombinant HDAC6): 1945 fold

CC1(C)CCN(Cc2ccc(-c3cn(Cc4ccc(-c5nnc(C(F)F)o5)cn4)nn3)nc2)CC1 [Compound 17, 2-(difluoromethyl)-5-(6-((4-(5-((4,4-dimethylpiperidin-1-yl)methyl)pyridin-2-yl)-1H-1,2,3-triazol-1-yl)methyl)pyridin-3-yl)-1,3,4-oxadiazole]
IC50 (human recombinant HDAC1): > 50 µM
HDAC6 selectivity (fold) (human recombinant HDAC6): 1466 fold

CN(C)Cc1cccc(-c2cn(Cc3ccc(-c4nnc(C(F)F)o4)cn3)nn2)c1Cl [Compound 34, 1-(2-chloro-3-(1-((5-(5-(difluoromethyl)-1,3,4-oxadiazol-2-yl)pyridin-2-yl)methyl)-1H-1,2,3-triazol-4-yl)phenyl)-N,N-dimethylmethanamine]
IC50 (human recombinant HDAC1): > 50 µM
HDAC6 selectivity (fold) (human recombinant HDAC6): 1633 fold

CC1CCN(Cc2ccc(F)c(-c3cn(Cc4ccc(-c5nnc(C(F)F)o5)cn4)nn3)c2)CC1 [Compound 19, 2-(difluoromethyl)-5-(6-((4-(2-fluoro-5-((4-methylpiperidin-1-yl)methyl)phenyl)-1H-1,2,3-triazol-1-yl)methyl)pyridin-3-yl)-1,3,4-oxadiazole]
IC50 (human recombinant HDAC1): > 50 µM
HDAC6 selectivity (fold) (human recombinant HDAC6): 1492 fold

Fc1ccc(-c2cn(Cc3ccc(-c4nnc(C(F)F)o4)cn3)nn2)cc1CN1CCCCC1 [Compound 24, 2-(difluoromethyl)-5-(6-((4-(4-fluoro-3-(piperidin-1-ylmethyl)phenyl)-1H-1,2,3-triazol-1-yl)methyl)pyridin-3-yl)-1,3,4-oxadiazole]
IC50 (human recombinant HDAC1): > 50 µM
HDAC6 selectivity (fold) (human recombinant HDAC6): 2577 fold

CN(C)Cc1ccc(-c2cn(Cc3ccc(-c4nnc(C(F)F)o4)cn3)nn2)cc1Cl [Compound 41, 1-(2-chloro-4-(1-((5-(5-(difluoromethyl)-1,3,4-oxadiazol-2-yl)pyridin-2-yl)methyl)-1H-1,2,3-triazol-4-yl)phenyl)-N,N-dimethylmethanamine]
IC50 (human recombinant HDAC1): > 50 µM
HDAC6 selectivity (fold) (human recombinant HDAC6): 2083 fold

CC1CCN(Cc2cc(-c3cn(Cc4ccc(-c5nnc(C(F)F)o5)cn4)nn3)ccc2F)CC1 [Compound 25, 2-(difluoromethyl)-5-(6-((4-(4-fluoro-3-((4-methylpiperidin-1-yl)methyl)phenyl)-1H-1,2,3-triazol-1-yl)methyl)pyridin-3-yl)-1,3,4-oxadiazole]
IC50 (human recombinant HDAC1): > 50 µM
HDAC6 selectivity (fold) (human recombinant HDAC6): 2890 fold
